From patent publication US6914046B1, “NF-κB activation inhibitors, and their pharmaceutical uses” (Centre National de la Recherche Scientifique, priority 1999, dated 2005)
Entries after “also recorded” stand apart in the source; their conditions may differ.

Experiments:
[1] = tested on: human renal carcinoma cells (RCC) HIEG; assay: Number of living RCC cells 48 h after daunomycin, flow cytometry; format: cell-based
Description: Erythropoietin (EPO), another molecule than HGH belonging to the same family of cytokines of class I, has been tested on human renal carcinoma cells (RCC) HIEG.
4.10^4 RCC cells have been transfected in a transitory manner with the help of an Effecten^R kit, or with 3 μg of plasmid carrying the gene encoding for EPO (RCC-EPO cells), or with 3 μg of a plasmid coding for the resistance to neomycin (RCC-Neo cells) as the negative control. After 48 hours, the RCC were combined with daunomycin at two different concentrations: 0.3 and 0.6 μM. The number of surviving cells was measured 48 hours later by flow cytometry (FIG. 6).
FIG. 6: Effect of erythropoietin on the apoptosis of the human renal carcinoma line HIEG, induced by daunomycin: for each of the experiments 1 and 2, the number of living cells is indicated on the ordinate, the white columns correspond to the RCC-Neo cells, the black columns correspond to the RCC-EPO cells; the concentrations of daunomycin are indicated on the abscissa in μM.

[2] = tested on: human ovarian adenocartcinoma IGROV/ADR; assay: Death of adriamycine resistant IGROV/ADR cells by daunomycin with recombinant HGH; format: cell-based
Description: To test the possibility of using the object of the present invention on non-lymphoid tumors, the inventors have used HGH to try to invert the “adriamycine resistant” phenotype of cells isolated from a human ovarian adenocartcinoma IGROV/ADR (Bénard J et coll., 1985, Cancer Res, 45:4970-4979).
FIG. 5: Effect of growth hormone on the apoptosis of the IGROV/ADR line, induced by daunomycin; the percentage of dead cells (IP+) is indicated on the ordinate, and different columns corresponding to the different concentrations of HGH used (0, 5, 50, 500, 1000 ng/ml); the concentrations of daunomycin are indicated on the abscissa in μM.

[3] = tested on: human monocytes; assay: Death of human monocytes after engagement of APO1/CD95/Fas; format: cell-based
[4] = tested on: U937-HGH and U937-Neo cells; assay: Death mediated by daunomycin in U937-HGH versus control line (IP+ cells); format: cell-based, human
Description: FIG. 4: Effect of growth hormone on apoptosis induced by daunomycin; the percentage of the dead cells (IP+) is indicated on the ordinate, the white columns corresponding to the cells of the strain U937-Neo, the black columns corresponding to the cells of the strain U937-HGH; the indicated percentages show the increase of mortality of the cells; the concentrations of daunomycin are indicated on the abscissa in μM.

[5] = tested on: U937-HGH and U937-Neo cells; assay: Propidium iodide incorporation (flow cytometry) after 48 h culture with recombinant -TNF; format: cell-based, human; conditions: U937-HGH line versus U937 / U937-Neo control
Description: A selection gene (neomycin resistant, Neo^R) and the gene encoding for human growth hormone (HGH) have been co-transfected in the human promyeloid leukemic line U937. By comparing the transfected line U937-HGH (which produces in a constituent fashion HGH at physiologic doses), either to the parent line U937, or to a line transfected with Neo^R alone, there are observed by different methodological approaches, that the U937-HGH line dies more under the effect of the tumor necrosis factor (-TNF). This cytokine secreted by different types of immune cells has in an anti-tumor activity (Harakana, K et al., 1984, Int J Cancer, 34:263-267) and is capable of promoting the activation of NF-κB (Baeuerle P A, Henkel T, 1994, Ann Rev Immunol, 12:141-179).
The U937-HGH cells and the U937-Neo control cells have been cultured for 48 hours in the presence of increasing concentrations of recombinant -TNF. As a result of this culture, the washed cells have been incubated in the presence of propidium iodide which is incorporated in the DNA of the dead cells. These cells are analyzed by flowing cytometry. […]

[6] = tested on: NF-κB; assay: NF-κB-driven CAT reporter ELISA after -TNF stimulation; format: cell-based, human; conditions: U937-HGH versus U937-Neo cells
Description: The cells are transfected by electroporation then incubated with -TNF. At the end of culturing, the cells are lysated and the activated CAT is measured by an commercial ELISA (Boehringer-Mannheim), according to the directions of the supplier.
FIG. 3: Effect of growth hormone on the reporter activity CAT; the percentage of variation of CAT activity is indicated on the abscissa; the two left columns show the two experiments carried out on U937-Neo cells, and the two right columns represent the two independent experiments carried out on U937-HGH cells.

[7] = tested on: NF-κB; conditions: human monocytes, exogenous recombinant HGH; cited from earlier work
[8] = tested on: NF-κB; assay: Gel delay analysis of nuclear extracts for NF-κB after -TNF stimulation; format: cell-based, human; conditions: U937-HGH cells versus U937 control cells, -TNF or -TNF and cycloheximide
Description: On this gel were deposited nuclear extracts from the U937-HGH and U937 cells (the mother line having served for obtaining the U937-HGH lines) subjected to different inductors including -TNF or -TNF and cycloheximide (inhibitor of protein synthesis).
FIG. 2: The effect of growth hormone on the translocation of NF-κB; column 1 corresponds to the control cells U937, column 2 corresponds to the U937 cells treated with -TNF+cycloheximide, column 3 corresponds to the U937 cells treated with -TNF, column 4 corresponds to the U937 cells treated with -TNF+a mutant NF-κB probe, column 5 corresponds to the U937 cells treated with -TNF +a homologous NF-κB probe, column 6 corresponds to the control cells U937-HGH, column 7 corresponds to the U937-HGH cells treated with -TNF+cycloheximide, column 8 corresponds to the U937-HGH cells treated with -TNF; the presence of NF-κB is indicated by an arrow.

| Molecule | numbers of living cells ([1]; Experiment 1, RCC-EPO cells, daunomycin 0.3 μM) | numbers of living cells ([1]; Experiment 1, RCC-EPO cells, daunomycin 0.6 μM) | numbers of living cells ([1]; Experiment 1, RCC-Neo cells, daunomycin 0.3 μM) | numbers of living cells ([1]; Experiment 1, RCC-Neo cells, daunomycin 0.6 μM) | numbers of living cells ([1]; Experiment 2, RCC-EPO cells, daunomycin 0.3 μM) | numbers of living cells ([1]; Experiment 2, RCC-EPO cells, daunomycin 0.6 μM) | numbers of living cells ([1]; Experiment 2, RCC-Neo cells, daunomycin 0.3 μM) | numbers of living cells ([1]; Experiment 2, RCC-Neo cells, daunomycin 0.6 μM) | toxic effect of daunomycin on IGROV/ADR cells ([2]; HGH 0 ng/ml) | death mediated through the molecule Fas [3] | synthesis of proto-oncogene Bc1-2 [3] | sensitivity to death mediated by daunomycin [4] | effect of HGH on death mediated by -TNF [5] | CAT activity, reflected by the presence of NF-κB [6] | activation of NF-κB after stimulation by LPS [7] | presence of NF-κB in the nuclei [8] | dose of HGH giving maximum effect ([2]; lowest dose of HGH used, sensitisation to daunomycin) [ng/mL] | effect of recombinant HGH on sensitivity of IGROV/ADR cells to daunomycin ([2]; recombinant HGH (Saizen) added to culture) |
| --- | --- | --- | --- | --- | --- | --- | --- | --- | --- | --- | --- | --- | --- | --- | --- | --- | --- | --- |
| COc1cccc2c1C(=O)c1c(O)c3c(c(O)c1C2=O)C[C@@](O)(C(C)=O)C[C@@H]3O[C@H]1C[C@H](N)[C@H](O)[C@H](C)O1 [daunomycin] | 3487 | 8551 | 11382 | 10179 | 2693 | 4739 | 8891 | 7001 | insensitive to the toxic effect |  |  |  |  |  |  |  |  |  |
| HGH: human growth hormone (SEQ ID NO 2); produced by transfected U937-HGH line or recombinant exogenous HGH (Saizen, Serono) (protein, listed as Homo sapiens) MATGSRTSLLLAFGLLCLPWLQEGSAFPTIPLSRLFDNASLRAHRLHQLAFDTYQEFNPQTSLCFSESIPTPSNREETQQKSNLELLRISLLLIQSWLEPVQFLRSVFANSLVYGASDSNVYDLLKDLEEGIQTLMGRLEDGSPRTGQIFKQTYSKFDTNSHNDDALLKNYGLLYCFRKDMDKVETFLRIVQCRSVEGSCGF |  |  |  |  |  |  |  |  |  | decreases the death | increasing the synthesis | more sensitive than the control line | accelerates the death of these cells; also recorded: increases their susceptibility to the induction of death | decreased in the U937-HGH cells relative to the control cells | inhibits the activation of NF-κB | decreased relative to the control cells | 5 | renders these cells sensitive to daunomycin |
